The test system of one test is Cell line. The test can be described thus: inhibitory concentration against ATP-dependant calcium influx across plasma membrane of human monocytes. The class given is functional, cell-based.
Test [1] addresses T1, P2X purinoceptor 7 (Homo sapiens) (UniProt Q99572).
T1 sequence (whole entry): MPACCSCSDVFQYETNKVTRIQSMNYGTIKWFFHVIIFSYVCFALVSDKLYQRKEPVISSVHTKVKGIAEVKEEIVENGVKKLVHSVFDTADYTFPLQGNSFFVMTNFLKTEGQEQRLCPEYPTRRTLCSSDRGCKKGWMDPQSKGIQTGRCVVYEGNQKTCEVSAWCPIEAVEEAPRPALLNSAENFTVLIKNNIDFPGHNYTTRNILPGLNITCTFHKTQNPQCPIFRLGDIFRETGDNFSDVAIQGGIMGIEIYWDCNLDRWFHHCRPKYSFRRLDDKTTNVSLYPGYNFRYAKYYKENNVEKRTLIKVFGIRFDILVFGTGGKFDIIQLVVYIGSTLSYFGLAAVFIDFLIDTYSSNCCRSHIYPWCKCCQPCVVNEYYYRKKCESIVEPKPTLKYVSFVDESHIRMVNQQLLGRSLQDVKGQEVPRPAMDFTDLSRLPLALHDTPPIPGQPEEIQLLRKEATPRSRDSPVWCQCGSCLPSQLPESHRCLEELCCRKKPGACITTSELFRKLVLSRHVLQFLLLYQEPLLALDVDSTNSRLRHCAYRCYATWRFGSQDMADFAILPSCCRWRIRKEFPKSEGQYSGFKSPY
The note with it: HEK293, 1 uM.
Description: Dissociation rate constant for P2X purinoceptor 7 expressed in HEK 293 cells at 1 uM

In test [2] the target is T2, P2X purinoceptor 7 (Homo sapiens, UniProt Q99572).
T2 sequence (Q99572 whole entry): T1 sequence (whole entry)
The test can be described thus: Maximum binding affinity towards P2X purinoceptor 7 expressed in HEK 293 cells. The class given is cell-based, HEK293.

Test [3] deals with T1, P2X purinoceptor 7 (Homo sapiens). The note with it: HEK293.
Description: Association rate constant towards P2X purinoceptor 7 expressed in HEK 293 cells
Test [4] deals with T2, P2X purinoceptor 7. The test can be described thus: Equilibrium constant for P2X purinoceptor 7 expressed in HEK 293 cells at 1 uM. The class given is cell-based, HEK293.

Each structure is given as a SMILES string.

As to `CN([C@@H](Cc1ccc(OS(=O)(=O)c2cccc3cnccc23)cc1)C(=O)N1CCN(c2ccccc2)CC1)S(=O)(=O)c1cccc2cnccc12`, the 50% inhibitory concentration (IC50) (commonly the concentration at which inhibition is half-maximal) in the test with Cell line worked out at 51 nM.
The molecule `Cc1ccccc1N1CCN(C(=O)[C@H](Cc2ccc(OS(=O)(=O)c3cccc4cnccc34)cc2)N(C)S(=O)(=O)c2cccc3cnccc23)CC1` registered a K-1 in test [1] of 0.025 min⁻¹. The IC50 in the test with Cell line turned out to be 15 nM. The Kd at P2X purinoceptor 7 [2] and at P2X purinoceptor 7 [4] was 3.57 nM each time. The k obs in test [3] stood at 0.000767 s⁻¹.

The record behind these values is ChEMBL document CHEMBL1138640, “Synthesis, radiolabeling, and preliminary biological evaluation of [3H]-1-[(S)-N,O-bis-(isoquinolinesulfonyl)-N-methyl-tyrosyl]-4-(o-tolyl)-piperazine, a potent antagonist radioligand for the P2X7 receptor” (Bioorg Med Chem Lett, 2004).
